Values of other authors in patent publication US9062086B2, “N-acetyl L-cysteine chelates and methods for making and using the same” (Viva Pharmaceutical, Inc., priority 2013, dated 2015).

Key:
[1] = target: c-Glutamylcysteine synthetase (Homo sapiens, UniProt P48506); details: read-out: Ki (feedback inhibition by GSH); background statement
[2] = much higher than NAC; background statement

c-Glutamylcysteine synthetase, sequence (P48506 whole entry): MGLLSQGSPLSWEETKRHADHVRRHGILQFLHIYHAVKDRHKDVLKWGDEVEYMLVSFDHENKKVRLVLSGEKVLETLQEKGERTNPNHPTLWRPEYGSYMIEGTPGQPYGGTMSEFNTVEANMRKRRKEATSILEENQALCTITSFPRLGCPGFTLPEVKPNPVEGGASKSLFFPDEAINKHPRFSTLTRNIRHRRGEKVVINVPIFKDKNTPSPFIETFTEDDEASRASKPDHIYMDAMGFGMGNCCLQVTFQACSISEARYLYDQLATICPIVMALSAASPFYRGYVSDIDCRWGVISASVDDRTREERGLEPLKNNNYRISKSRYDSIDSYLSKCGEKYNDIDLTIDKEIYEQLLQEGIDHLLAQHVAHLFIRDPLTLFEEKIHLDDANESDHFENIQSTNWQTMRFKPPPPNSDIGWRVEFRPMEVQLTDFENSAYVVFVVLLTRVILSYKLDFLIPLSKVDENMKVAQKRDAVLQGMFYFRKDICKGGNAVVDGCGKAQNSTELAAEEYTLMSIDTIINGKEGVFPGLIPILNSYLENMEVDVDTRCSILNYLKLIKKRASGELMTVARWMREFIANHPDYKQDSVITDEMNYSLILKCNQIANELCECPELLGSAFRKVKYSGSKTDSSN

Structure (SMILES)	Ki [1]	bioavailability [2]
N[C@@H](CCC(=O)N[C@@H](CS)C(=O)NCC(=O)O)C(=O)O [GSH, glutathione]	~1500 µM	–
CCOC(=O)[C@H](CS)NC(C)=O [NACET, N-acetylcysteine ethyl ester]	–	around 60%
